Measurements taken from patent US10004809B2, “Precise delivery of therapeutic agents to cell mitochondria for anti-cancer therapy” (UNIVERSITY OF GEORGIA RESEARCH FOUNDATION, INC., priority 2013, dated 2018).

Assays:
PC3 cells = experiment: CELLTITER-GLO luminescent intracellular ATP quantification; type: cell-based, Human; conditions: for Increase in intracellular ATP levels: 3 h; for ATP level and cell growth at high concentration: PC3 cells, 6 h
Experimental: A decrease in cancer cell lactate levels is expected to be associated with an increase in ATP production. Intracellular ATP levels in PC3, LNCaP, and MSC cells treated with MITO-DCA (20 μM), TPP-DCA (60 μM), and Na-DCA (60 μM) were measured.
PC3 or MSC cells were plated at a density of 10,000 cells per well in 96-well plates compatible with the luminometer used in 100 μL media. […] Control wells containing medium without cells were prepared to obtain a value for background luminescence. Plates were then equilibrated at room temperature for ˜30 min. A volume of CELLTITER-GLO™ reagent equal to the volume of cell culture medium present in each well was added, this mixtures were well mixed for 2 min using a shaker to induce cell lysis. The plates were allowed to incubate at room temperature for 10 min to stabilize luminescent signal. Luminescent was recorded using a plate reader. ATP quantification was carried out from a standard curve using ATP disodium salt hydrate.

[1] = tested on: mouse bone marrow derived dendritic cells (BMDCs); experiment: Cytokine secretion of BMDCs activated with supernatants of treated PC3 cells (ELISA); type: cell-based; conditions: for IL-12 secretion from BMDCs: BMDCs 24 h
Source text: Cancer cells recruit several pathways to evade elimination by the immune system (Kim et al., Immunology 121:1-14, 2007). Several mechanisms by which tumor cells escape immunity include upregulation of inhibitory molecules, production of immunosuppressive cytokines, and downregulation of costimulatory molecules (Rabinovich et al., Annu. Rev. Immunol. 25:267-296, 2007). Dendritic cells (DCs), the major players for the initiation of a specific anti-tumor T-cell response, are potential target to tumor-mediated immunosuppression. (Gabrilovich et al., Nat. Med. 2:1096-1103, 1996; Radmayr et al., Int. J. Cancer 63:627-632, 1995; Orsini et al., Cancer Res. 63:4497-4506, 2003.) Lactic acid secretion in highly proliferative glycolytic tumor has the ability to induce alteration in antigen phenotype and functional activity of DCs, which contributes to the suppression of local immunity (Gottfried et al. 2006). Tumor derived lactic acid inhibit the differentiation of monocytes to DCs, impair DC activation and antigen expression and suppress the proliferation, cytokine production and cytotoxic activity of T cells (Fischer et al., Blood 109:3812-3819, 2007). After observing significant and very selective reduction in lactate levels in PCa cells by MITO-DCA, the impact of the reduced lactate producing PC3 cell supernatants on DCs was investigated. Cancer cell supernatants were generated by treating PC3 cells with MITO-DCA (50 μM), Na-DCA (150 μM), and TPP-DCA (150 μM) for 24 h. First, investigated was the immune responses from the PC3 supernatants upon treatment with different DCA compounds by determining pro-inflammatory and anti-inflammatory cytokines interleukin (IL)-2, IL-4, IL-6, IL-10, IL-12, tumor necrosis factor (TNF)-α, and interferon-gamma (IFN-γ) using enzyme-linked immunosorbent assay (ELISA) (FIG. 6A) (Marrache et al., Integr. Biol. 5:215-223, 2013). […] The levels of all these three cytokines were higher for MITO-DCA treated cells compared to those, which were treated with TPP-DCA or Na-DCA. When DCs are activated appropriately, they take up tumor antigens and apoptotic bodies, migrate to the T-cell-rich area of the lymph nodes, initiate a series of actions for the selection of antigen-specific T cells, and the release of the DC cytokines such as IFN-γ and IL-12. The PC3 supernatants containing the tumor antigens were added to mouse bone marrow derived dendritic cells (BMDCs) and incubated at 37° C. (Marrache et al., 2013). […]
BMDCs were isolated from 6-8 weeks old C57BL/6 mice. […] The cells were counted, resuspended and transferred to petri dishes at the final concentration of 1.5×10^6 cells/mL. […] DC purity was tested by incubating BMDCs with LPS (100 ng/mL) and measured the surface expression of CD11c. […]

MSC cells = experiment: MTT cytotoxicity assay on normal cells; type: cell-based, Human; conditions: 72 h
Experimental: The cytotoxic behaviors of MITO-DCA, TPP-DCA, Na-DCA, and TPP-Tris-(OH)3 were evaluated using the MTT assay against PC3, DU145, LNCaP, and MSC cells. Cells (2000 cells/well for PC3, DU145, and MSC cells; 5000 cells/well for LNCaP) were seeded on a 96-well plate in 100 μL of desired medium and incubated for 24 h. The cells were treated with different DCA compounds and TPP-Tris-(OH)3 at varying concentrations and incubated for 72 h at 37° C. The cells were then treated with 20 μL of MTT (5 mg/mL in PBS) for 5 h. The medium was removed, the cells were lysed with 100 μL of DMSO, and the absorbance of the purple tormazan was recorded at 550 nm using a Bio-Tek Synergy HT microplate reader. Each well was performed in triplicate. All experiments were repeated three times. Cytotoxicity was expressed as mean percentage increase relative to the unexposed control±SD. Control values were set at 0% cytotoxicity or 100% cell viability. Cytotoxicity data (where appropriate) was fitted to a sigmoidal curve and a three parameters logistic model used to calculate the IC50, which is the concentration of chemotherapeutics causing 50% inhibition in comparison to untreated controls. The mean IC50 is the concentration of agent that reduces cell growth by 50% under the experimental conditions and is the average from at least three independent measurements that were reproducible and statistically significant. The IC50 values were reported at ±99% confidence intervals. This analysis was performed with GraphPad Prism (San Diego, U.S.A).

[2] = supernatant of PC3 cells treated with 50 μM for 24 h

In the case of `O=C(CCCCC[P+](c1ccccc1)(c1ccccc1)c1ccccc1)NC(COC(=O)C(Cl)Cl)(COC(=O)C(Cl)Cl)COC(=O)C(Cl)Cl.[Br-]` [MITO-DCA], the “Increase in intracellular ATP levels” value (PC3 cells; 20 μM) is reported as about 44%, the “ATP level and cell growth at high concentration” value (PC3 cells; 50 μM) is reported as “ATP reduction and cell growth inhibition” and the “IL-10 production from BMDCs” value [1, 2] is reported as “reducing IL-10 production”. The “TNF-α secretion from BMDCs” value [1, 2] was “highest level”, the “IL-12 secretion from BMDCs” value [1, 2] was “significant increased secretion of IL-12” and the “Toxicity in normal MSC cells” value (MSC cells) was “did not show any toxic effects”.
`O=C(OCCC[P+](c1ccccc1)(c1ccccc1)c1ccccc1)C(Cl)Cl.[Br-]` [TPP-DCA] was tested, and the “Increase in intracellular ATP levels” value (PC3 cells; 60 μM) was “did not show any significant increase”, the “ATP level and cell growth at high concentration” value (PC3 cells; 150 μM) was “ATP reduction and cell growth inhibition” and the “IL-12 secretion from BMDCs” value ([1]; supernatant of PC3 cells treated with 150 μM for 24 h) was “lesser compared to MITO-DCA”. The “Toxicity in normal MSC cells” value (MSC cells) was “did not show any toxic effects”.
